Where two headings read alike, the source gives them in different places.
Legend:
[1] = biological target: Cy5-labelled Mcl1 (amino acids 171-321) C286S protein (UniProtKB Q07820) (Homo sapiens (Human), UniProt Q07820, C286S); assay: Inhibition of Mcl-1 by the fluorescence quenching assay (Example A, Method B); format: binding
Summary of the method: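 Eleven-point compound series incubated 2 h at room temperature with 1 nM Cy5-tagged protein and quencher-labelled PUMA peptide at 10, 20 or 400 nM in HEPES/NaCl/Tween 20, pH 7.4, 5% DMSO. IC50 for 50% fluorescence increase by 4-parameter fit, then Ki derived (complete cKi or estimated eKi).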

[2] = system: NCI-H929 cell lines; assay: In vitro cytotoxicity, CellTiter-Glo (CTG) assay (Example B, Method B); format: cell-based; conditions: NCI-H929 cells, 48 h incubation, read-out: C50
Summary of the method: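 ATP-based luminescence (CellTiter-Glo) after 48 h incubation at 37° C., 5% CO2 gave NCI-H929 viability. Eleven concentrations tested, highest final 30 μM, dispensed acoustically from 10 mM DMSO stocks; C50 defined as concentration reaching 50% viability.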

Cy5-labelled Mcl1 (amino acids 171-321) C286S protein, sequence (Q07820 171-321 C286S): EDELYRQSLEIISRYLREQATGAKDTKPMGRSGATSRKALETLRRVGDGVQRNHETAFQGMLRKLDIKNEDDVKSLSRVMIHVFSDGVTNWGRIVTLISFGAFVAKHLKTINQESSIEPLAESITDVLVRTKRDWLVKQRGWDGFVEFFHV

SMILES: COCCCOc1cc2c(cc1Cl)C[C@H](C[C@@H](C)COc1ccnc3c1[C@H](C)CCC3)[C@]21CC[C@](Nc2cccc(Cl)c2)(C(=O)O)CC1 [Example 823, (1r,2′S,4S)-5′-chloro-4-(3-chloroanilino)-6′-(3-methoxypropoxy)-2′-[(2R)-2-methyl-3-{[(5R)-5-methyl-5,6,7,8-tetrahydroquinolin-4-yl]oxy}propyl]-2′,3′-dihydrospiro[cyclohexane-1,1′-indene]-4-carboxylic acid]
- Ki [1]: 0.108 nM
- IC50 ([2]; Homo sapiens, NCI-H929, 48 h): 128 nM

SMILES: COC[C@@H]1C[C@H]1c1ccc2c(c1)[C@]1(CC[C@@](Nc3cccc(Cl)c3)(C(=O)O)CC1)[C@@H](C[C@@H](C)COc1ccnc3c1[C@H](C)CCC3)C2 [Example 875, (1r,2′S,4S)-4-(3-chloroanilino)-6′-[(1R,2R)-2-(methoxymethyl)cyclopropyl]-2′-[(2R)-2-methyl-3-{[(5R)-5-methyl-5,6,7,8-tetrahydroquinolin-4-yl]oxy}propyl]-2′,3′-dihydrospiro[cyclohexane-1,1′-indene]-4-carboxylic acid]
- Ki [1]: 0.0843 nM
- IC50 ([2]; Homo sapiens, NCI-H929, 48 h): 59.7 nM

SMILES: CC1COc2cc3c(cc2OC1)[C@]1(CC[C@@](Nc2cccc(Cl)c2)(C(=O)O)CC1)[C@@H](C[C@@H](C)COc1ccnc2c1[C@H](C)CCC2)C3 (single isomer, unassigned) [Example 983]
- Ki [1]: 0.037 nM
- IC50 [2]: 74.4 nM

SMILES: COc1cc2c(cc1C)C[C@H](C[C@@H](C)COc1ccnc3c1[C@H](C)CCC3)[C@]21CC[C@](Nc2cccc(Cl)c2)(C(=O)O)CC1 [Example 813, (1r,2′S,4S)-4-(3-chloroanilino)-6′-methoxy-5′-methyl-2′-[(2R)-2-methyl-3-{[(5R)-5-methyl-5,6,7,8-tetrahydroquinolin-4-yl]oxy}propyl]-2′,3′-dihydrospiro[cyclohexane-1,1′-indene]-4-carboxylic acid]
- Ki [1]: 0.0908 nM
- IC50 ([2]; Homo sapiens, NCI-H929, 48 h): 184 nM

SMILES: C[C@@H](COc1ccnc2c1[C@H](C)CCC2)C[C@H]1Cc2cc3c(cc2[C@]12CC[C@@](Nc1cccc(Cl)c1)(C(=O)O)CC2)OCCCO3 [Example 837, (1r,4S,8′S)-4-(3-chloroanilino)-8′-[(2R)-2-methyl-3-{[(5R)-5-methyl-5,6,7,8-tetrahydroquinolin-4-yl]oxy}propyl]-3′,4′,8′,9′-tetrahydro-2′H-spiro[cyclohexane-1,7′-indeno[5,6-b][1,4]dioxepine]-4-carboxylic acid]
- Ki [1]: 0.00733 nM
- IC50 ([2]; Homo sapiens, NCI-H929, 48 h): 31 nM

SMILES: C[C@@H](COc1ccnc2c1[C@H](C)CCC2)C[C@H]1Cc2ccccc2[C@]12CC[C@@](Oc1cccc(Cl)c1)(C(=O)O)CC2 [Example 717, (1r,2′S,4S)-4-(3-chlorophenoxy)-2′-[(2R)-2-methyl-3-{[(5R)-5-methyl-5,6,7,8-tetrahydroquinolin-4-yl]oxy}propyl]-2′,3′-dihydrospiro[cyclohexane-1,1′-indene]-4-carboxylic acid]
- Ki [1]: 2.28 nM
- IC50 ([2]; Homo sapiens, NCI-H929, 48 h): 367 nM

SMILES: C[C@@H](COc1ccnc2c1[C@H](C)CCC2)C[C@H]1Cc2cc3c(cc2[C@]12CC[C@@](Nc1cccc(Cl)c1)(C(=O)O)CC2)O[C@H](C)CO3 [Example 973, (1r,3′R,4S,7′S)-4-(3-chloroanilino)-3′-methyl-7′-[(2R)-2-methyl-3-{[(5R)-5-methyl-5,6,7,8-tetrahydroquinolin-4-yl]oxy}propyl]-2′,3′,7′,8′-tetrahydrospiro[cyclohexane-1,6′-indeno[5,6-b][1,4]dioxine]-4-carboxylic acid]
- Ki [1]: 0.0118 nM
- IC50 ([2]; Homo sapiens, NCI-H929, 48 h): 34.3 nM

SMILES: CCN(CC)C(=O)OCOC(=O)[C@]1(Nc2cccc(Cl)c2)CC[C@@]2(CC1)c1cc3c(cc1C[C@@H]2C[C@@H](C)COc1ccnc2c1[C@H](C)CCC2)OCO3 [Example 950, [(diethylcarbamoyl)oxy]methyl (1r,4S,6′S)-4-(3-chloroanilino)-6′-[(2R)-2-methyl-3-{[(5R)-5-methyl-5,6,7,8-tetrahydroquinolin-4-yl]oxy}propyl]-6′,7′-dihydro-2′H-spiro[cyclohexane-1,5′-indeno[5,6-d][1,3]dioxole]-4-carboxylate]
- inhibition at 1 µM ([1]; @ 1 μM, read-out: Mcl-1 inhibition, % at a single concentration): 7.1%
- IC50 ([2]; Homo sapiens, NCI-H929, 48 h): > 30000 nM

SMILES: CC[C@H]1COc2cc3c(cc2O1)C[C@H](C[C@@H](C)COc1ccnc2c1[C@H](C)CCC2)[C@]31CC[C@](Nc2cccc(Cl)c2)(C(=O)O)CC1 [Example 978, (1r,2′S,4S,7′S)-4-(3-chloroanilino)-2′-ethyl-7′-[(2R)-2-methyl-3-{[(5R)-5-methyl-5,6,7,8-tetrahydroquinolin-4-yl]oxy}propyl]-2′,3′,7′,8′-tetrahydrospiro[cyclohexane-1,6′-indeno[5,6-b][1,4]dioxine]-4-carboxylic acid]
- Ki [1]: 0.0831 nM
- IC50 ([2]; Homo sapiens, NCI-H929, 48 h): 164 nM

SMILES: C[C@@H](COc1ccnc2c1[C@H](C)CCC2)C[C@H]1Cc2cc3c(cc2[C@]12CC[C@@](Nc1cccc(Cl)c1)(C(=O)O)CC2)OCC3 [Example 850, (1r,4S,6′S)-4-(3-chloroanilino)-6′-[(2R)-2-methyl-3-{[(5R)-5-methyl-5,6,7,8-tetrahydroquinolin-4-yl]oxy}propyl]-2′,3′,5′,6′-tetrahydrospiro[cyclohexane-1,7′-indeno[5,6-b]furan]-4-carboxylic acid]
- Ki [1]: 0.0173 nM
- IC50 ([2]; Homo sapiens, NCI-H929, 48 h): 50.9 nM

SMILES: C[C@@H](COc1ccnc2c1[C@H](C)CCC2)C[C@@H]1Cc2ccc(-c3ccc[nH]3)cc2[C@]12CC[C@@](Nc1cccc(Cl)c1)(C(=O)O)CC2 [Example 880, (1r,2′R,4R)-4-(3-chloroanilino)-2′-[(2R)-2-methyl-3-{[(5R)-5-methyl-5,6,7,8-tetrahydroquinolin-4-yl]oxy}propyl]-6′-(1H-pyrrol-2-yl)-2′,3′-dihydrospiro[cyclohexane-1,1′-indene]-4-carboxylic acid]
- Ki [1]: 1.23 nM
- IC50 ([2]; Homo sapiens, NCI-H929, 48 h): 829 nM

SMILES: COCCNC(=O)OC(C)OC(=O)[C@]1(Nc2cccc(Cl)c2)CC[C@@]2(CC1)c1cc3c(cc1C[C@@H]2C[C@@H](C)COc1ccnc2c1[C@H](C)CCC2)OCO3 (stereo partly drawn) [Example 947, 1-{[(2-methoxyethyl)carbamoyl]oxy}ethyl (1r,4S,6′S)-4-(3-chloroanilino)-6′-[(2R)-2-methyl-3-{[(5R)-5-methyl-5,6,7,8-tetrahydroquinolin-4-yl]oxy}propyl]-6′,7′-dihydro-2′H-spiro[cyclohexane-1,5′-indeno[5,6-d][1,3]dioxole]-4-carboxylate]
- Ki [1]: 0.256 nM
- IC50 ([2]; Homo sapiens, NCI-H929, 48 h): 604 nM

SMILES: CC(OC(=O)N1CCOCC1)OC(=O)[C@]1(Nc2cccc(Cl)c2)CC[C@@]2(CC1)c1cc3c(cc1C[C@@H]2C[C@@H](C)COc1ccnc2c1[C@H](C)CCC2)OCO3 (stereo partly drawn) [Example 948, 1-({(1r,4S,6′S)-4-(3-chloroanilino)-6′-[(2R)-2-methyl-3-{[(5R)-5-methyl-5,6,7,8-tetrahydroquinolin-4-yl]oxy}propyl]-6′,7′-dihydro-2′H-spiro[cyclohexane-1,5′-indeno[5,6-d][1,3]dioxole]-4-carbonyl}oxy)ethyl morpholine-4-carboxylate]
- Ki [1]: 64.9 nM
- IC50 ([2]; Homo sapiens, NCI-H929, 48 h): 7120 nM

SMILES: [2H]c1c([2H])c(Cl)c([2H])c(N[C@]2(C(=O)O)CC[C@]3(CC2)c2cc4c(cc2C[C@@H]3C[C@@H](C)COc2ccnc3c2[C@H](C)CCC3)OCO4)c1[2H] [Example 844, (1r,4S,6′S)-4-{[3-chloro(2H4)phenyl]amino}-6′-[(2R)-2-methyl-3-{[(5R)-5-methyl-5,6,7,8-tetrahydroquinolin-4-yl]oxy}propyl]-6′,7′-dihydro-2′H-spiro[cyclohexane-1,5′-indeno[5,6-d][1,3]dioxole]-4-carboxylic acid]
- Ki [1]: 0.0106 nM
- IC50 ([2]; Homo sapiens, NCI-H929, 48 h): 29.2 nM

SMILES: COCCOC(=O)[C@]1(Nc2cccc(Cl)c2)CC[C@@]2(CC1)c1cc3c(cc1C[C@@H]2C[C@@H](C)COc1ccnc2c1[C@H](C)CCC2)OCO3 [Example 934, 2-methoxyethyl (1r,4S,6′S)-4-(3-chloroanilino)-6′-[(2R)-2-methyl-3-{[(5R)-5-methyl-5,6,7,8-tetrahydroquinolin-4-yl]oxy}propyl]-6′,7′-dihydro-2′H-spiro[cyclohexane-1,5′-indeno[5,6-d][1,3]dioxole]-4-carboxylate]
- Ki [1]: 69 nM
- IC50 ([2]; Homo sapiens, NCI-H929, 48 h): > 30000 nM

SMILES: COc1cc2c(cc1F)CN(C[C@@H](C)COc1ccnc3c1[C@H](C)CCC3)[C@]21CC[C@](Nc2cccc(Cl)c2)(C(=O)O)CC1 [Example 43, (1s,4S)-4-(3-chloroanilino)-5′-fluoro-6′-methoxy-2′-[(2R)-2-methyl-3-{[(5R)-5-methyl-5,6,7,8-tetrahydroquinolin-4-yl]oxy}propyl]-2′,3′-dihydrospiro[cyclohexane-1,1′-isoindole]-4-carboxylic acid]
- Ki ([1]; Ki determined from IC50): 0.25 nM
- IC50 ([2]; Homo sapiens, NCI-H929, 48 h): 162 nM

SMILES: COCc1cc2c(cc1F)CN(C[C@@H](C)COc1ccnc3c1[C@H](C)CCC3)[C@]21CC[C@](Nc2cccc(Cl)c2)(C(=O)O)CC1 [Example 51, (1s,4S)-4-(3-chloroanilino)-5′-fluoro-6′-(methoxymethyl)-2′-[(2R)-2-methyl-3-{[(5R)-5-methyl-5,6,7,8-tetrahydroquinolin-4-yl]oxy}propyl]-2′,3′-dihydrospiro[cyclohexane-1,1′-isoindole]-4-carboxylic acid]
- Ki ([1]; Ki determined from IC50): 0.0762 nM
- IC50 ([2]; Homo sapiens, NCI-H929, 48 h): 37.7 nM

SMILES: CC(=O)c1cc(C)c2c(c1)[C@]1(CC[C@@](Nc3cccc(Cl)c3)(C(=O)O)CC1)C(C[C@@H](C)COc1ccnc3c1[C@H](C)CCC3)C2 (single isomer, unassigned) [Example 758]
- Ki [1]: 1.19 nM
- IC50 [2]: 97.2 nM

Source: US20240150293A1, “SPIROCYCLOHEXANE DERIVATIVES, PHARMACEUTICAL COMPOSITIONS CONTAINING THEM AND THEIR USES AS ANTI-APOPTOTIC INHIBITORS” (LES LABORATOIRES SERVIER, priority 2021, published 2024)
